Measurements published in US11224614B2, “Compositions and methods for increasing iron intake in a mammal” (Solvotrin Therapeutics Limited, priority 2014, dated 2022).

Key:
[1] = In-vivo gastrointestinal tolerability (modified GSRS, Bristol Stool Chart), cross-over; set-up: species or system human; details: modified GSRS 0-3, Bristol Stool Chart; p=0.02 and p=0.03
Description: In a separate study using random, blinded, prospective allocation to beads prepared in accordance with the invention or FeSO4.7H2O in identical size 0 gelatin capsules, in-vivo gastrointesinal tolerability was assessed in a cross-over design. The test articles were taken in the morning after fasting for 10 hours with baseline and 2 hour fasting blood draws. After 2 hours fasting, food was taken as normal and over the following 24 hours, a modified Gastrointestinal Symptom Rating Scale (GSRS) was completed. This rates the following symptoms as 0=none, 1=mild, 2=moderate, 3=severe: • Abdominal pain/cramps • Nausea/vomiting • Abdominal bloating • Borborygmus (abdominal rumbling) • Flatulence/wind
In addition the products were taken on 3 consecutive days and the Bristol Stool Chart was used to assess constipation/diarrhoea. Positive score changes from baseline normality (=0) indicated constipation.

[2] = Simulated intestinal dissolution, pH 6.6 with pancreatin and bile acids; format: physicochemical; details: pH 6.6 over 1 hour, FIG. 5
Description: A solution of iron (II) sulfate in water (10 mM) was serially diluted using pH 1.8 KCl buffer. Aliquots (100 μl) of the diluted solutions were added to a 96-well plate containing 100 μl of 1,10-phenanthroline (5 mM). The plate was read at 490 nm on a multiwall plate reader in order to construct a calibration curve. Dissolution samples were diluted ten-fold typically at pH 1.6 into phenanthroline (5 mM) and the samples read rapidly under N2 blanketing.
A 50 mg quantity of beads was transferred to a vial containing 10M HCl (10 ml) and left overnight at room temperature. The resulting solution was shaken and then a 100 μl aliquot was transferred into 900 μl of 10M HCl. A 100 μl aliquot of the diluted solution was added to a 96-well plate containing 1M sodium thiocyanate (100 μl). Absorbance was measured at 450 nm on a multiwell plate reader. The concentration of the iron III was estimated by reference to a series of iron III standard solutions.
An accurately weighed sample (approximately 50 mg) of microbeads was transferred into a three necked vessel into which had been placed 15 ml pH 6.6 buffers (containing 0.1 M sodium bicarbonate, 10 mg/ml bile acid extract, 1.85 mg/ml pancreatin, adjust to pH 6.6 with 1M HCl) at 37° C. Generally, at 1, 15, 30, 45, 60 and occasionally at 90, 120 min time points, samples were taken for iron (II) and iron (III) measurement. […]

[3] = In-vivo efficacy: randomised double-blind cross-over, serum iron over 0-6 hours in fasting subjects; details: primary endpoint, p=0.017
Description: We evaluated the formulation in a randomised, double-blind, controlled with a 28 day cross-over to obtain a minimum of 6 paired evaluable healthy subjects with serum ferritin <100 ng/mL for comparison of the invention versus FeSO4.
In the analyses, comparisons between groups were conducted using paired sample t-tests for continuous variables and Wilcoxon's Rank Order tests for non-normal distributions. Shapiro-Wilks tests for normality were used to confirm assumptions that primary and secondary endpoints in the study population come from a normal distribution. If assumptions of normality were not possible, log-transformation was used or Wilcoxon's Rank Order tests were applied.
Subjects returned to the study site (within two weeks of Visit 1) for the first intervention day (Visit 2), after fasting since 10 pm the previous night. Subjects were pre-randomised into one of the two treatment groups with a washout period of four weeks between treatment phases: • Group 1: beads prepared in accordance with the invention, followed by FeSO4 • Group 2: FeSO4, followed by beads prepared in accordance with the invention
A blood sample was collected immediately after drinking the supplement and at 2 hours, 4 hours and 6 hours after dosing. […] Ferritin and haemoglobin were also assessed. […]

ferrous sulfate [FeSO4]
symptoms scores for abdominal pain/cramps, nausea, flatulence and constipation [1]: Significantly higher symptoms scores | iron II and total iron (ferrous and ferric) profile in dissolution [2]: undergoes oxidation and precipitates as ferric hydroxides | serum iron Trough to Peak Differential (TPD) over 0-6 hours, median [3]: 9.7 µmol/L
